Assay results as given in patent US7145009B2, “Pirazino(aza)indole derivatives” (priority 1999, dated 2006).
pEC50, pKi: −log10 of the molar value. Structures can show the parent of a compound that is named as a salt. Where two headings read alike, the source gives them in different places.

How the values were obtained:
[1] = test system: 5-HT2c syndrome (splayed limbs, hunched posture, retro-pulsion); test: 5-HT2c syndrome, in vivo efficacy of 5-HT2C agonists; settings: rats, 1 mg/kg s.c.
Procedure: The efficacy of 5-HT2C agonists was assessed for ability to induce a specific syndrome.
The 5-HT2c syndrome is a rapid screening method to assess the in vivo efficacy of 5-HT2c agonists through their ability to induce three specific behaviours in rats. The animals are dosed with either a positive control (mCPP), test compound or vehicle, either s.c. or p.o. The animals are observed on an open bench, typically 30, 60 and 180 minutes and the degree of syndrome is assessed over a two minute period on a scale of 0–3 depending on the presence and severity of splayed limbs, hunched posture and retro-pulsion, the three specific behaviours which constitute the syndrome. Data is analysed using Kruskal-Wallis Analysis of Variance followed with appropriate post-hoc tests. All statistical analysis are conducted using Excel version 7.0 (Microsoft Corp.) and Statistica version 5.0 (Stasoft, Inc.).

[2] = biological target: T1, 5-HT2c receptors in a CHO cell line (Homo sapiens, UniProt P28335); test: Binding to 5-HT2c receptor, [3H]-5-HT, Method (a); settings: read-out: Ki (2C)
T1 construct: expressed in transfected cells; host or cells: CHO cell line
T1 sequence (P28335 33-458): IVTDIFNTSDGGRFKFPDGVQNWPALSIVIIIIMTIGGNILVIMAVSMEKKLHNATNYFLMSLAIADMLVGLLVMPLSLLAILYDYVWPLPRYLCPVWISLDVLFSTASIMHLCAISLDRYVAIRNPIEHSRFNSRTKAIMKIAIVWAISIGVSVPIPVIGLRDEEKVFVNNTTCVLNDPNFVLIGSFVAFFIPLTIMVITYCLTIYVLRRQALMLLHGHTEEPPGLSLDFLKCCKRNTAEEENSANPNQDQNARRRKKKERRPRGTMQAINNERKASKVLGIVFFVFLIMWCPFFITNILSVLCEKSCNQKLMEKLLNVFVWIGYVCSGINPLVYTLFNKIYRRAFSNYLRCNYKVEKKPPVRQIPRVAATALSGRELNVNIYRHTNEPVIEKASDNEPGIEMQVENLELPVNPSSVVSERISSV
Procedure: (§1) The binding of compounds of formula (I) to serotonin receptors was determined in vitro by standard methods. The preparations were investigated in accordance with the assays given hereinafter.
Method (a): For the binding to the 5-HT2c receptor the 5-HT2c receptors were radiolabelled with [^3H]-5-HT. The affinity of the compounds for 5-HT2c receptors in a CHO cell line was determined according to the procedure of D. Hoyer, G. Engel and H. O. Kalkman, European J. Pharmacol., 1985, 118, 13–23.

[3] = biological target: T2, h5-HT2C receptor (CHO cells) (Homo sapiens, UniProt P28335); test: Functional activity, FLIPR calcium assay, h5-HT2C; type: cell-based; settings: for Emax: CHO, read-out: h5-HT2C Relative Efficacy
T2 construct: expressed in transfected cells; host or cells: CHO cells
T2 sequence (P28335 33-458): T1 sequence (P28335 33-458)
Procedure: (§2) The functional activity of compounds of formula (I) was assayed using a Fluorimetric Imaging Plate reader (FLIPR):
(§3) CHO cells expressing either the h5-HT2C or h5-HT2A receptors were counted and plated into standard 96 well microtitre plates before the day of testing to give a confluent monolayer. The following day the cells were dye loaded with the calcium sensitive dye Fluo 3-AM by incubation with serum free culture maintenance media containing pluronic acid and Fluo 3-AM dissolved in DMSO at 37° C. in a CO2 incubator at 95% humidity for approximately 90 minutes. Unincorporated dye was removed by washing with Hanks balanced salt solution containing 20 mM HEPES and 2.5 mM probenecid (the assay buffer) using an automated cell washer to leave a total volume of 100 μl/well.
(§4) The drug (dissolved in 50 μl of assay buffer) was added at a rate of 70 μl/sec to each well of the FLIPR 96 well plate during fluorescence measurements. The measurements are taken at 1 sec intervals and the maximum fluorescent signal was measured (approx 10–15 secs after drug addition) and compared with the response produced by 10 μM 5-HT (defined as 100%) to which it is expressed as a percentage response (relative efficacy). Dose response curves were constructed using Graphpad Prism (Graph Software Inc.).

[4] = biological target: T3, human 5-HT2B receptors in a CHO cell line (Homo sapiens, UniProt P41595); test: Binding to 5-HT2B receptor, [3H]-5-HT, Method (b); settings: read-out: Ki (2B)
T3 construct: expressed in transfected cells; host or cells: CHO cell line
T3 sequence (P41595 whole entry): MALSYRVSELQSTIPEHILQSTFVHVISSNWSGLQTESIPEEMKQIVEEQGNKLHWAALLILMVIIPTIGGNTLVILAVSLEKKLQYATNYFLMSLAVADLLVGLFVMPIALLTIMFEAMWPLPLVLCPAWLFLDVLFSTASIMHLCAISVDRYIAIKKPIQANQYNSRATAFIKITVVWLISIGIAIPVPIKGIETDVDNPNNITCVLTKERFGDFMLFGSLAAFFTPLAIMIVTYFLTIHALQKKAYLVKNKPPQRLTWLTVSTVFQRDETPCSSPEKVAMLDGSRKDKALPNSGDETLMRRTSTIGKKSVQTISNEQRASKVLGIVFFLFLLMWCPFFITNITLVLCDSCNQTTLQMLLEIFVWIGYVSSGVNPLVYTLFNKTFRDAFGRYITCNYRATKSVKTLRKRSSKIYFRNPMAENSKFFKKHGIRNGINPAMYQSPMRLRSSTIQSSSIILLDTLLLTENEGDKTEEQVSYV
Procedure: as §1
Method (b): For the binding to the 5-HT2B receptor the 5-HT2B receptors were radiolabelled with [^3H]-5-HT. The affinity of the compounds for human 5-HT2B receptors in a CHO cell line was determined according to the procedure of K. Schmuck, C. Ullmer, P. Engels and H. Lubbett, FEBS Lett., 1994, 342, 85–90.

[5] = biological target: T4, 5-HT2A receptors in a CHO cell line (Homo sapiens, UniProt P28223); test: Binding to 5-HT2A receptor, [125I]-DOI, Method (c); settings: read-out: Ki (2A)
T4 construct: expressed in transfected cells; host or cells: CHO cell line
T4 sequence (P28223 whole entry): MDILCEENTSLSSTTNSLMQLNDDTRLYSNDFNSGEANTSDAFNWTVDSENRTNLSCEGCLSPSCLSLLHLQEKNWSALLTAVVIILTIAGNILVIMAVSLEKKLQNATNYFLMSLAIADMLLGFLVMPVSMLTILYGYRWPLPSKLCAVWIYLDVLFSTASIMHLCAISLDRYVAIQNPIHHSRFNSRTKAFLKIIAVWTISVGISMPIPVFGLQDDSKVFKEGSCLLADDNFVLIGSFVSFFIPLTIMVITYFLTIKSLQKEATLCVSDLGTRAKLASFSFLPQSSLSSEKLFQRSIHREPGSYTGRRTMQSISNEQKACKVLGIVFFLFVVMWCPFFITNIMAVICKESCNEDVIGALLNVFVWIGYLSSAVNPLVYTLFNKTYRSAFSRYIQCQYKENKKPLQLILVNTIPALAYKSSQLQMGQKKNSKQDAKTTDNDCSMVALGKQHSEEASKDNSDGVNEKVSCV
Procedure: as §1
Method (c): For the binding to the 5-HT2A receptor the 5-HT2A receptors were radiolabelled with […]. The affinity of the compounds for 5-HT2A receptors in a CHO cell line was determined according to the procedure of D. J. McKenna and S. J. Peroutka, J. Neurosci., 1989, 9/10, 3482–90.

[6] = biological target: T5, h5-HT2A receptor (CHO cells) (Homo sapiens, UniProt P28223); test: Functional activity, FLIPR calcium assay, h5-HT2A; type: cell-based; settings: for Emax: CHO, read-out: h5-HT2A Relative Efficacy
T5 construct: expressed in transfected cells; host or cells: CHO cells
T5 sequence (P28223 whole entry): as above
Procedure: as §2, §3, §4

[7] = biological target: T6, 5-HT1A receptors (Homo sapiens, UniProt P08908); settings: literature report; cited from earlier work
T6 sequence (P08908 1-422): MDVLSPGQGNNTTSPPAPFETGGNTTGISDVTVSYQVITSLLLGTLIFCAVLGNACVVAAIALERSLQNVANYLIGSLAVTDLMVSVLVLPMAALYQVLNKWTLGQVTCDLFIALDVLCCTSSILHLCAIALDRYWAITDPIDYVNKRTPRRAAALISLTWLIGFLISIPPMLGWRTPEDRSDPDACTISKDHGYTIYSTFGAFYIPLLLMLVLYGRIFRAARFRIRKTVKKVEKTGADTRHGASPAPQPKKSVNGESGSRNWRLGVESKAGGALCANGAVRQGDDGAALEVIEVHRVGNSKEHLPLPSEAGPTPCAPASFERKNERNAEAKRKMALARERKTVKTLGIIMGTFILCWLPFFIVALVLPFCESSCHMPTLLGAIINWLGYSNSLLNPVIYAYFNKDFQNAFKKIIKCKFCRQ

[8] = test system: food intake; settings: rats, literature reports; cited from earlier work
[9] = FLIPR, CHO cells, Fluo 3-AM, read-out: h5-HT2C EC50

Structure (SMILES) | melting point | pEC50 [3] | Emax [3] [%] | pEC50 [6] | Emax [6] [%] | other results
C[C@H]1CN2c3cc(Cl)ccc3C[C@@H]2CN1 (as salt: hydrochloride) [Example 11, (3S,10aR) 7-Chloro-3-methyl-1,2,3,4,10,10a-hexahydropyrazino[1,2-a]indole hydrochloride] | 265 °C (dec.) | – | – | – | – | –
Clc1ccc2c(n1)N1CCNCC1C2 (racemic) (as salt: fumarate) [Example 6, (RS) 7-Chloro-1,2,3,4,10,10a-6-aza-hexahydropyrazino[1,2-a]-7-indole fumarate] | 148 °C | – | – | – | – | –
Fc1cc2c(cc1Cl)N1CCNCC1C2 (racemic) (as salt: fumarate) [Example 12, (RS) 7-Chloro-8-fluoro-1,2,3,4,10,10a-hexahydropyrazino[1,2-a]indole hemifumarate] | 195 to 197 °C | – | – | – | – | –
CSc1ccc2c(c1)N1CCNCC1C2 (racemic) (as salt: fumarate) [Example 13, (RS) 7(Methylthio)-1,2,3,4,10,10a-hexahydropyrazino[1,2-a]indole fumarate] | 196 to 198 °C | – | – | – | – | –
Clc1ccc2c(c1)N1CCNCC1C2 (racemic) (as salt: hydrochloride) [Example 1, (RS) 7-Chloro-1,2,3,4,10,10a-hexahydropyrazino[1,2-a]indole hydrochloride] | 235 °C (dec.) | – | – | – | – | –
Clc1ccc2c(c1)CC1CNCCN21 (racemic) (as salt: hydrochloride) [Example 2, (RS) 8-Chloro-1,2,3,4,10,10a-hexahydropyrazino[1,2-a]indole hydrochloride] | 258 to 262 °C (dec.) | – | – | – | – | –
Clc1cccc2c1CC1CNCCN21 (racemic) (as salt: hydrochloride) [Example 3, (RS) 9-Chloro-1,2,3,4,10,10a-hexahydropyrazino[1,2-a]indole hydrochloride] | 265 to 269 °C (dec.) | – | – | – | – | –
Brc1ccc2c(c1)N1CCNCC1C2 (racemic) (as salt: hydrochloride) [Example 4, (RS) 7-Bromo-1,2,3,4,10,10a-hexahydropyrazino[1,2-a]indole hydrochloride] | 243 to 245 °C | – | – | – | – | –
Clc1ccc2c(c1)N1CCNCC1C2 (racemic) [Example 1, (RS) 7-Chloro-1,2,3,4,10,10a-hexahydropyrazino[1,2-a]indole hydrochloride] | – | 7.74 | 91 | 6.29 | 53 | time for which significant pharmacological efficacy is maintained (5-HT2c syndrome) [1]: at least 180 minutes; pKi [2]: 7.51; pKi [4]: 7.49; pKi [5]: 7.28
Clc1ccc2c(c1)CC1CNCCN21 (racemic) [Example 2, (RS) 8-Chloro-1,2,3,4,10,10a-hexahydropyrazino[1,2-a]indole hydrochloride] | – | – | 84 | 6.18 | 88 | pEC50 [3, 9]: 6.79
Clc1cccc2c1CC1CNCCN21 (racemic) [Example 3, (RS) 9-Chloro-1,2,3,4,10,10a-hexahydropyrazino[1,2-a]indole hydrochloride] | – | – | 82 | 5.99 | 49 | pEC50 [3, 9]: 6.85
Brc1ccc2c(c1)N1CCNCC1C2 (racemic) [Example 4, (RS) 7-Bromo-1,2,3,4,10,10a-hexahydropyrazino[1,2-a]indole hydrochloride] | – | 7.89 | 100 | 6.61 | 58 | –
Cc1cc2c(cc1Cl)N1CCNCC1C2 (racemic) [Example 5, (RS) 7-Chloro-8-methyl-1,2,3,4,10,10a-hexahydropyrazino[1,2-a]indole fumarate] | – | 7.70 | 93 | 6.96 | 87 | –
Clc1ccc2c(n1)N1CCNCC1C2 (racemic) [Example 6, (RS) 7-Chloro-1,2,3,4,10,10a-6-aza-hexahydropyrazino[1,2-a]-7-indole fumarate] | – | – | 100 | 5.78 | 47 | pEC50 [3, 9]: 6.76
Fc1cc2c(cc1Cl)N1CCNCC1C2 (racemic) [Example 12, (RS) 7-Chloro-8-fluoro-1,2,3,4,10,10a-hexahydropyrazino[1,2-a]indole hemifumarate] | – | 7.66 | 92 | 6.97 | 74 | –
CSc1ccc2c(c1)N1CCNCC1C2 (racemic) [Example 13, (RS) 7(Methylthio)-1,2,3,4,10,10a-hexahydropyrazino[1,2-a]indole fumarate] | – | 7.07 | 87 | 6.75 | 59 | –
c1ccc2c(c1)CC1CNCCN21 (stereo not shown) [1,2,3,4,10,10a-Hexahydropyrazino[1,2-a]indole] | – | – | – | – | – | selectivity for 5-HT1A receptors over 5-HT2 (binding affinity) [7]: ten fold
Clc1ccc2c(c1)N1CCNC[C@@H]1C2 [Example 7, (10aS) 7-Chloro-1,2,3,4,10,10a-hexahydropyrazino[1,2-a]indole hydrochloride] | – | 6.79 | 86 | 6.84 | 67 | –
Clc1ccc2c(c1)N1CCNC[C@H]1C2 [Example 8, (10aR) 7-Chloro-1,2,3,4,10,10a-hexahydropyrazino[1,2-a]indole hydrochloride] | – | 8.52 | 87 | 7.00 | 59 | –
C[C@H]1CN2c3cc(Cl)ccc3C[C@@H]2CN1 [Example 11, (3S,10aR) 7-Chloro-3-methyl-1,2,3,4,10,10a-hexahydropyrazino[1,2-a]indole hydrochloride] | – | 7.24 | 92 | 6.28 | 38 | –
Clc1cccc(N2CCNCC2)c1 [mCPP, m-chlorophenylpiperazine] | – | – | – | – | – | effect on food intake [8]: reduce food intake
